{
  "source": "patent US10640765B2",
  "about": "(priority 2016, dated 2020)",
  "key": {"[1]": {"test_system": "vaccinia virus (v7.5/tk viral DNA) in BSC-1 cells", "type": "cell-based"}, "[2]": {"test_system": "vaccinia virus", "type": "cell-based"}},
  "data": [
    {"compound": "CO[C@H]1/C=C/O[C@@]2(C)Oc3c(C)c(O)c4c(O)c(c(/C=N/N5CCN(C)CC5)c(O)c4c3C2=O)NC(=O)/C(C)=C\\C=C\\[C@H](C)[C@H](O)[C@@H](C)[C@@H](O)[C@@H](C)[C@H](OC(C)=O)[C@@H]1C", "note": "[Rifampicin, rifampicin]", "values": [
      {"measurement": "efficiency (number of recombinant clones)", "setting": "[1]", "result": "113,148 clones/100 mm^2 plate"},
      {"measurement": "overall efficiency of clone production with rifampicin versus without rifampicin", "setting": "[2]", "result": "approximately 10 fold"}
    ]}
  ]
}
